Laboratory results taken from ChEMBL document CHEMBL1201862, “PubChem BioAssay data set” (2004).
Values joined by “and” are separate entries in the source; they are usually repeats but may differ in a detail not shown here. Identical values can stand only once.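 1) Cells in 96-well plates. 2) Compound, 48 h, 5 concentrations. 3) Linear interpolation between surrounding doses. 4) Unreached endpoint = highest concentration. Here, GI50 denotes the concentration required for 50% inhibition of growth.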 Active and inactive are the calls of the source. Rule as the data show it: active = GI50 up to about 1.1 µM and inactive = higher.

Experiments:
Assay in all cases: NCI tumour cell line growth inhibition, 48 h
[1] = test system: Hs-578T
[2] = test system: HT-29
[3] = test system: DU-145
[4] = test system: KM-20L2
[5] = test system: MDA-MB-231
[6] = test system: T47D
[7] = test system: BT-549
[8] = test system: A549
[9] = test system: MDA-N
[10] = test system: UACC-257
[11] = test system: MOLT-4
[12] = test system: OVCAR-8
[13] = test system: LXFL 529
[14] = test system: SNB-78
[15] = test system: SF-268
[16] = test system: DMS-114
[17] = test system: OVCAR-3
[18] = test system: MDA-MB-435
[19] = test system: Malme-3M
[20] = test system: SR
[21] = test system: NCI/ADR-RES
[22] = test system: MCF7
[23] = test system: PC-3
[24] = test system: RXF 631
[25] = test system: SW-620
[26] = test system: M14
[27] = test system: OVCAR-5
[28] = test system: DMS-273
[29] = test system: HCT-116
[30] = test system: LOX IMVI
[31] = test system: NCI-H23
[32] = test system: K562
[33] = test system: NCI-H460
[34] = test system: SK-MEL-2
[35] = test system: RXF 393
[36] = test system: EKVX
[37] = test system: KM12
[38] = test system: XF498
[39] = test system: RPMI-8226
[40] = test system: UACC-62
[41] = test system: SNB-19
[42] = test system: SK-OV-3
[43] = test system: HCT-15
[44] = test system: DLD-1
[45] = test system: NCI-H522
[46] = test system: HOP-92
[47] = test system: HOP-62
[48] = test system: SN12C
[49] = test system: U-251
[50] = test system: SK-MEL-5
[51] = test system: COLO 205
[52] = test system: CAKI-1
[53] = test system: HCC 2998
[54] = test system: SNB-75
[55] = test system: CCRF-CEM
[56] = test system: HL-60
[57] = test system: SK-MEL-28
[58] = test system: OVCAR-4
[59] = test system: TK-10
[60] = test system: SF-539
[61] = test system: IGROV-1
[62] = test system: NCI-H226

Measured: GI50

CC(C)(O)/C=C/C(=O)[C@](C)(O)[C@H]1[C@H](O)C[C@@]2(C)[C@@H]3CC=C4[C@@H](C=C(O)C(=O)C4(C)C)[C@]3(C)C(=O)C[C@]12C [CUCURBITACIN I]
975 nM (active) and 1.27 µM (inactive): [36]
1.21 µM (inactive) and 698 nM (active): [16]
inactive: [11] 1.88 µM and 1.61 µM | [12] 1.3 µM and 2.13 µM | [27] 3.03 µM and 3.24 µM | [31] 2.38 µM and 1.33 µM | [37] 1.9 µM and 1.12 µM
active: [1] 0.0485 µM | [2] 538 nM and 321 nM | [3] < 0.01 µM | [4] 482 nM and 318 nM | [5] 0.0223 µM | [6] 0.104 µM | [7] 0.0147 µM | [8] 493 nM and 271 nM | [9] < 0.01 µM | [10] 324 nM and 555 nM | [13] 339 nM and 513 nM | [14] 303 nM and 528 nM | [15] 475 nM and 251 nM | [17] 395 nM and 783 nM | [18] < 0.01 µM | [19] 536 nM and 329 nM | [20] 644 nM and 410 nM | [21] 0.126 µM | [22] 0.0245 µM | [23] 0.0238 µM | [24] 372 nM and 536 nM | [25] 334 nM and 541 nM | [26] 548 nM and 303 nM | [28] 243 nM and 218 nM | [29] 631 nM and 363 nM | [30] 430 nM and 238 nM | [32] 841 nM and 504 nM | [33] 288 nM and 543 nM | [34] 442 nM and 237 nM | [35] 225 nM and 440 nM | [38] 284 nM and 330 nM | [39] 281 nM and 318 nM | [40] 805 nM and 607 nM

C=C(C)C1CC2=C(O1)C(=O)c1ccccc1C2=O (stereo not drawn) [DEHYDROISO-ALPHA-LAPACHONE]
inactive: [41] 29.8 µM | [2] 20.9 µM | [42] > 100 µM | [8] 21 µM | [44] 20.8 µM | [10] 13.3 µM | [11] 10.6 µM | [45] 20.7 µM | [12] 17.3 µM | [13] 17.2 µM | [14] 20.3 µM | [16] 16 µM | [17] 18.9 µM | [46] 16.3 µM | [47] 19.6 µM | [48] 19.1 µM | [24] 20.3 µM | [25] 23.6 µM | [26] 18.5 µM | [49] 16.5 µM | [50] 14 µM | [51] 19.3 µM | [28] 17.4 µM | [52] 17.6 µM | [30] 9.18 µM | [31] 18.9 µM | [32] 18.6 µM | [33] 17.7 µM | [53] 19.1 µM | [54] 17.6 µM | [55] 16.3 µM | [56] 3.38 µM | [57] 19 µM | [35] 18.9 µM | [36] 25.7 µM | [58] 11.3 µM | [59] 23 µM | [37] 18.3 µM | [60] 18.5 µM | [38] 17.9 µM | [61] 20 µM | [62] > 10 µM | [39] 15.1 µM | [40] 16.1 µM
17.9 µM: [43]
